Assay results as given in patent publication US20070105944A1, “Taxane metabolites” (priority 2002, published 2007).
Where “and” joins values, the source holds several entries; their conditions need not be identical. Equal values may be shown once.

Assays:
[1] = tested on: sc M109; type: in vivo; settings: oral doses as high as 160 mg/kg/inj, murine tumor models (sc M109)
Text: […]; see Eiseman et al., Second NCI Workshop on Taxol and Taxus (September 1992); Suffness et.al. in TAXOL Science and Applications (CRC Press 1995). […]. Another report by J. Terwogt et. al. from The Lancet, Jul. […] […].

[2] = prior art; cited from earlier work
[3] = oral; quote from WO98/53811; cited from earlier work
[4] = up to 160 mg/kg/day, Suffness et al.; cited from earlier work
[5] = tested on: human tumor xenografts; assay: Oral paclitaxel against human tumor xenografts in athymic mice or rats; settings: human tumor xenografts implanted in athymic mice or athymic rats
[6] = [14C]Compound I incubation with human liver microsomes (HLM), metabolite profile; type: in vitro ADME; settings: 1 hr incubation, 37° C., 20 μM, NADPH
Protocol: (§1) Each mL of the incubation mixture, in 100 mM of potassium phosphate buffer (pH 7.4), contained: 20 nmol of test article, 1 mg of microsomal protens, 3 μmol of NADPH and 10 μmol of magnesium chloride. The final concentrations were: test article, 20 μM; microsomal proteins, 1 mg/mL; NADPH, 3 mM; magnesium chloride, 10 mM; acetonitrile, 1% (v/v). 7-EC (100 μM) was used as the positive control for enzyme activity in the microsomes of all species. Two negative controls, one without NADPH and the other using heat-treated microsomes (5 min in boiling water), were carried out to determine the stability of the test article. […]
(§2) Incubations were carried out aerobically at 37° C. with constant shaking. […] At the end of incubation, duplicate aliquots (10 μL) of the incubation mixture of the negative controls and the test article incubations were taken for liquid scintillation counting of radioactivity. […]
(§3) The radiochemical purity of [^14C]Compound I and the metabolite profiles of the compound in the methanol extract of liver microsomal incubations were determined by HPLC radiochromatograpby using the following system:
(§4) Fractions of the HPLC effluent were collected (0.25 min/fraction) into a 96-well deep luma plates and the collected fractions were dried using Savant Automatic SpeedVac system. Radioactivity was then determined with a Packard Top Count-NXT counter. […]

[7] = [14C]Compound I incubation with monkey liver microsomes (MKLM), metabolite profile; type: in vitro ADME; settings: 1 hr incubation, 37° C., 20 μM, NADPH
Protocol: as §1, §2, §3, §4

[8] = [14C]Compound I incubation with mouse liver microsomes (MLM), metabolite profile; type: in vitro ADME; settings: 1 hr incubation, 37° C., 20 μM, NADPH
Protocol: as §1, §2, §3, §4

[9] = Biotransformation of [14C]Compound I in bile duct cannulated rats after a single oral dose; type: in vivo, rat; settings: single 25-mg/kg oral dose
Text: A single 25-mg/kg oral dose of [^14C] Compound I, as a solution in cremophore
EL/ethanol/water (10:10:80, v/v/v), was separately administered to two male bile duct cannulated (BDC) rats. Within 24 hr after dosing, an average of 25.8% of the administered dose was excreted in bile, The corresponding value in urine was 3.9%. […] Thus, the oral absorption of [^14C] Compound I in rats was estimated to be at least 30%. Following the oral dose, the concentration of total radioactivity in plasma was measurable up to 24 hr and averaged 349 ng-equiv./mL at that time. The parent drug was a prominent radioactive component in plasma. At 24 hr after dosing, the concentration of Compound I in plasma was estimated to be 61 ng/mL. More than 20 hydrolytic and oxidative metabolites of [^14C] Compound I were detected in plasma.
Bile duct and jugular vein cannulated (BDC/JVC) male Sprague-Dawley rats (Hla®: [SD] CVF®, 6-10 weeks old and weighing 300±50 g at dosing), were purchased from Hilltop Laboratories (Scottdale, Pa.). Upon receipt, each rat was marked on the tail and given an ear tag with a unique identification number.
The dosing solution was prepared as follows: 7.96 mg of non-radiolabeled Compound I, 10.16 mg of [^13C] Compound I and 2.99 mg of [^14C] Compound I (77.7 μCi of radioactivity) were weighed into a vial. The compounds were then dissolved in 1.6 mL of a cremophore EL/ethanol solution (1:1, v/v) and diluted with 6.4 mL of sterile water. The total weight of the dosing solution was 7.53 g. The concentration of [^14C] Compound I in the dosing solution was […] (10.32 μCi/g) of solution. The nominal specific activity was 3.68 μCi/mg (8170 dpm/μg).
Two rats, housed individually in Nalgene metabolic cages, were each given a single 25-mg/kg nominal dose of [^14C] Compound I orally by gavage. The actual amount of dosing solution administered to each animal was determined by weighing the loaded dosing syringe before dose administration and the emptied syringe after dose administration. Bile was collected from each animal between −1-0 (pre-dose), 0-6, 6-12, and 12-24 hr after dosing. Urine was collected between −24-0 (predose), 0-12, and 12-24 hr after dosing. Both the bile and urine samples were collected in tubes set on dry ice. At 0.5, 6, and 12 hr after dosing, blood samples (−1.2 mL) were collected from the jugular vein cannula into a heparinized syringe. At 24 hr after dosing, animals were sacrificed by CO2 asphyxiation. Terminal blood was collected by cardiac puncture into a heparinized vacutainer. Predose blood sample was collectd from a separate control animal. Blood was centrifuged at 2,500 rpm and 4° C. for 10 min to separate the plasma. Bile, urine, and plasma samples were weighed and stored at −20° C. prior to analysis.
Concentrations of radioactivity in bile, urine, and plasma samples were determined by counting duplicate aliquots of each sample in 5 mL of Ready Value™ cocktail (Beckman Instrunents, Inc.) with a Beckman LS 3801, LS 5000TD, or LS6000TA Liquid Scintillation Counter for 10 min or until the 2-sigma error was less than or equal to 2%, whichever came first. Quench correction was performed using an external standard method. Most of the HPLC fractions used to prepare reconstructed HPLC chromatograms were counted for 5 minutes except for plasma samples, which were counted for 10 minutes.
A portion (−20% of each sample) of the 0-6, 6-12, and 12-24 hr bile samples from two rats were pooled by interval to prepare three pooled samples. A portion (−20% of each sample) of the 0-6, 6-12, and 12-24 hr bile samples from two rats were pooled together to prepare a 0-24 hr sample. Duplicate 10-μL aliquots of each pooled sample were taken for radioactivity counting.
A portion (−20% of each sample) of the 0-12 and 12-24 hr urine samples from two rats were pooled by interval to prepare two pooled samples. […]

[10] = [14C]Compound I incubation with dog liver microsomes (DLM), metabolite profile; type: in vitro ADME; settings: 1 hr incubation, 37° C., 20 μM, NADPH
Protocol: as §1, §2, §3, §4

[11] = [14C]Compound I incubation with rat liver microsomes (RLM), metabolite profile; type: in vitro ADME; settings: 1 hr incubation, 37° C., 20 μM, NADPH
Protocol: as §1, §2, §3, §4

[12] = Rank order of metabolic stability in liver microsomes of the five species; type: in vitro ADME; settings: 1 hr incubation
Protocol: Each mL of the incubation mixture, in 100 mM of potassium phosphate buffer (pH 7.4), contained: 20 nmol of test article, 1 mg of microsomal protens, 3 μmol of NADPH and 10 μmol of magnesium chloride. The final concentrations were: test article, 20 μM; microsomal proteins, 1 mg/mL; NADPH, 3 mM; magnesium chloride, 10 mM; acetonitrile, 1% (v/v). 7-EC (100 μM) was used as the positive control for enzyme activity in the microsomes of all species. Two negative controls, one without NADPH and the other using heat-treated microsomes (5 min in boiling water), were carried out to determine the stability of the test article. The total volume of incubation mixture was 5 mL each for the test article incubations and 1 mL each for the positive and negative controls.
as §2, with “shaking. Incubation mixtures were prepared at 0-4° C. (on ice).” for “shaking.”
[^14C]Compound I was separately incubated with mouse, rat, dog, monkey and human liver microsoomes fortified with NADPH for 1 hr at 37° C. The incubation mixtures were extracted with methanol and the extacts were analyzed by HPLC radiochromatograpby and LC/RAM/(+)ESI-MS and MS/MS.

[13] = tested on: tumors; settings: Proc Am Assoc Cancer Res 1999 40 Abs 1905; cited from earlier work
[14] = BDC rats, within 24 hr, average of two rats, total radioactivity

SMILES: CC(=O)O[C@H]1C(=O)[C@@]2(C)[C@H]([C@H](OC(=O)c3ccccc3)[C@]3(O)C[C@H](OC(=O)[C@H](O)[C@@H](NC(=O)c4ccccc4)c4ccccc4)C(C)=C1C3(C)C)[C@]1(OC(C)=O)CO[C@@H]1C[C@@H]2O [paclitaxel]
- efficacy after oral dosing [1]: without signs of any efficacy
- oral activity in human or animal models [2]: no oral activity
- absorbed when administered orally [3]: less than 1%
- antitumor activity on oral administration [4]: no evidence of antitumor activity
- attempts to demonstrate activity for orally administered drug [5]: unsuccessful

SMILES: COC(=O)O[C@@]12CO[C@@H]1C[C@H](O)[C@@]1(C)C(=O)[C@H](OC(C)=O)C3=C(C)[C@@H](OC(=O)[C@H](O)[C@@H](NC(=O)OC(C)(C)C)C(C)(C)C)C[C@@](O)([C@@H](OC(=O)c4ccccc4)C12)C3(C)C (some centres unmarked) [Compound I, 3′-tert-butyl-3′-N-tert-butyloxycarbonyl-4-deacetyl-3′-dephenyl-3′-N-debenzoyl-4-O-methoxycarbonyl-paclitaxel]
- parent drug in the incubation mixture recovered unchanged [6]: 21.4%
- parent drug in the incubation mixture remained unchanged [7]: 2.9%
- parent drug in the incubation mixture remained unchanged [8]: 31.5%
- total recovery of the administered dose in bile and urine ([9]; BDC rats, 24 hr, average): 29.6%
- administered dose excreted in bile [9, 14]: 25.8%
- administered dose excreted in urine [9, 14]: 3.9%
- concentration at 24 h ([9]; male, Sprague-Dawley, rat, rats, at 24 hr after dosing, pooled plasma, read-out: concentration of Compound I in plasma (estimated)): 61 ng/mL
- parent drug detected in bile, % of total radioactivity ([9]; rats, 0-24 h pooled bile): < 1%
- concentration of total radioactivity in plasma ([9]; rats, at 24 hr, average): 349 ng-equiv./mL
- oral absorption (estimated) ([9]; rats, from bile and urine recovery): at least 30%
- parent drug detected in urine ([9]; rats, pooled urine): ≤ 1%
- parent drug in the incubation mixture remained unchanged [10]: 59.7% and 58.7%
- parent drug in the incubation mixture remained unchanged [11]: 72.5%
- rank order of metabolic stability in the liver microsomes of the five species [12]: rat>dog>mouse>human>monkey

SMILES: CC(=O)O[C@H]1C(=O)[C@@]2(C)[C@H]([C@H](OC(=O)c3ccccc3)[C@]34OC(=O)O[C@H]3[C@H](OC(=O)[C@H](O)[C@H](CC(C)C)NC(=O)OC(C)(C)C)C(C)=C1C4(C)C)[C@]1(OC(C)=O)CO[C@@H]1C[C@@H]2O [IDN-5109]
- activity against tumors in mice after oral administration [13]: oral activity

SMILES: O=C(O)CNC(=O)c1ccccc1 [Metabolite M3, hippuric acid]
- % of the dose in urine accounted for by metabolite(s) ([9]; rats, 0-24 hr pooled urine): ~2.3%
- % of total radioactivity in urine accounted for by metabolite(s) ([9]; rats, 0-24 hr pooled urine): ~56% and ~60%

SMILES: CC(=O)O[C@@]12CO[C@@H]1C[C@H](O)[C@@]1(C)C(=O)[C@H](O)C3=C(C)[C@@H](OC(=O)[C@H](O)[C@@H](NC(=O)OC(C)(C)C)c4ccccc4)C[C@@](O)([C@@H](OC(=O)c4ccccc4)[C@H]21)C3(C)C [TAXOTERE®, docetaxel]
- oral activity in human or animal models [2]: no oral activity
